Measured values taken from article PMC9684503 (Communications Biology, 2022).
Several values for one entry are separate records, joined by “and”; a condition that tells them apart may be missing. Identical values can stand only once. Counter-ions that a name gives are not always drawn. Like-named read-outs stand apart in the source and are kept apart here. Each block holds one compound with its values, some of them ahead of it.

How the values were obtained:
rat VMAT2 = rat VMAT2 (Rattus norvegicus, UniProt Q01827); assay: FFN206 uptake assay in transfected Hek293 cells; conditions: for VMAT2-specific FFN206 uptake relative to DMSO (=1), replicate samples: Fig. 2a source data, 25 μM compound
VMAT2 [1] = target: T1, VMAT2 (Rattus norvegicus, UniProt Q01827); conditions: 50 µM
Description: (§1) We preincubated cells expressing VMAT2 with 50 μM compounds and measured [^3H]-DTBZ binding (5 nM) to the sample (Fig. 3a). […] Hek293 cells were grown and transfected with pcDNA3.1 VMAT2-His as described above. Two days after transfection, cells were harvested, washed and transferred to 96 well MultiScreen FB filter plates (Millipore). […] Cells were washed 3 times with ice cold PBS and 50 µl Ultima Gold LLL (PerkinElmer) was added to each well. […] After a 20 min incubation at 37 °C, cells were washed and [^3H] scintillation counting was performed as described above.

VMAT2 [2] = target: T1, VMAT2; assay: [3H]-DTBZ competition assay in Hek293 cells expressing VMAT2; conditions: 50 μM compound;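 also: HEK293 cells transfected with VMAT2, pretreated 30 min with compound, then given 5 nM [3H]-DTBZ for 20 min at 37 °C, bound label read by scintillation counting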
Description: as §1

rat VMAT2-His = target: T2, rat VMAT2-His (Rattus norvegicus, UniProt Q01827); assay: Differential scanning fluorimetry (DSF) with CPM dye: change of melting temperature of purified VMAT2; format: binding; conditions: for ΔTm at 12 µM: compound 0,12 µM; for ΔTm at 37 µM: compound 0,37 µM; for ΔTm at 10 µM: compound 10 µM; for ΔTm at 30 µM: compound 30 µM; for ΔTm at 90 µM: compound 90 µM; for ΔTm at 270 µM: compound 270 µM
T2 construct: The ORF of rat VMAT2 was subcloned into a pFastBac vector; His; made in house; host or cells: Sf9 insect cells (baculovirus)
Description: To screen purified VMAT2 by DSF we expressed the rat VMAT2 protein, as VMAT2-His, in SF9 insect cells using the baculovirus expression system. The transporter was solubilized and purified in n-Dodecyl-β-D-maltoside (DDM)/cholesterol hemisuccinate (CHS) micelles by immobilized metal affinity chromatography (IMAC) and size exclusion chromatography (SEC). […] Screening was performed using DSF and the thiol-reactive dye 7-diethylamino-3-(4-maleimidophenyl)-4-methylcoumarin (CPM), an approach that monitors changes to the protein melting temperature (Tm) upon compound binding. Using CPM or other dyes, DSF-based assays have successfully been used in molecular-based screenings[34],[35]. […] DSF screening was performed in 384 well plates using the thiol-sensing dye 7-diethylamino-3-(4-maleimidophenyl)-4-methylcoumarin (CPM) (Merck). […] Protein melting curves were determined using a LightCycler 480 ii RT-PCR system (Roche), with a temperature ramp increasing from 25 to 95 °C at a rate of 2 °C/min. Data analysis was performed using an in-house software that automatically determines the protein midpoint melting temperature (Tm) based on the second derivative of the melting curves or using the HTSDSF explorer as described in ref. [58]. […] 6 μl of this mix was dispensed to each well of 384 well plates using a Multidrop™ Combi Reagent Dispenser (Thermo Scientific). […] All initial hits were then subjected to an initial validation in triplicates with a compound concentration of 200 μM and a ΔTm > 5× the standard deviation (SD) cut off. […] Processing of the data from the primary screening and the concentration-dependent validation was performed as reported.

[3] = Table 1, DSF screening, mean ± SD of triplicates
[4] = Table S2 dose response, read-out: ΔTm
[5] = Table S2 dose response, compound 1,11 µM, read-out: ΔTm
[6] = Table S2 dose response, compound 3,33 µM, read-out: ΔTm

rat VMAT2, sequence (Q01827 whole entry): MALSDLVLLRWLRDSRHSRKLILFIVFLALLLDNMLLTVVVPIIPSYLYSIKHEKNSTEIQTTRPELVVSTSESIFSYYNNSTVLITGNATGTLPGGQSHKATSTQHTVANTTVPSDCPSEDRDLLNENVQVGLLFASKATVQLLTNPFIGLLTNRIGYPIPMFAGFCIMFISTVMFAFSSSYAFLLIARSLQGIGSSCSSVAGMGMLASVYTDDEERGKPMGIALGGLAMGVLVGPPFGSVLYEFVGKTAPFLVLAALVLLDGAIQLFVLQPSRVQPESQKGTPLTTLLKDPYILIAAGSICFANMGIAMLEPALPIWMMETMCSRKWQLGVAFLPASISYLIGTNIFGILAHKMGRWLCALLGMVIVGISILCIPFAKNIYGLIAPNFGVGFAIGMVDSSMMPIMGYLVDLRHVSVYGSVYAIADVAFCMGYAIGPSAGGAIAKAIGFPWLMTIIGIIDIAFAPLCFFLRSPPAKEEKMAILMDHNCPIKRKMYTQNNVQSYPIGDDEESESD
T1 sequence (Q01827 whole entry): as above
T2 sequence (Q01827 whole entry): as above

SMILES: COc1ccc(CC(C)(C)NC[C@H](O)c2cc(O)cc3c2OCC(=O)N3)cc1 [Olodaterol]
IC50 (rat VMAT2): 4.75 ± 1.36 µM
FFN206 uptake relative to no compound (=1), replicate samples (rat VMAT2; Fig. 2b/2c source data, compound 0.0152 μM, listed as Oldaterol): 1.037 and 1.016 and 1.038 and 1.078
FFN206 uptake relative to no compound (=1), replicate samples (rat VMAT2; Fig. 2b/2c source data, compound 0.1372 μM, listed as Oldaterol): 1.061 and 1.023 and 1.068 and 1.18
FFN206 uptake relative to no compound (=1), replicate samples (rat VMAT2; Fig. 2b/2c source data, compound 0.4115 μM, listed as Oldaterol): 0.9896 and 1.059 and 0.9994 and 0.9917
FFN206 uptake relative to no compound (=1), replicate samples (rat VMAT2; Fig. 2b/2c source data, compound 1.2346 μM, listed as Oldaterol): 0.8954 and 0.9111 and 0.8127 and 1.136
FFN206 uptake relative to no compound (=1), replicate samples (rat VMAT2; Fig. 2b/2c source data, compound 3.7037 μM, listed as Oldaterol): 0.4411 and 0.5591 and 0.475 and 0.4566
FFN206 uptake relative to no compound (=1), replicate samples (rat VMAT2; Fig. 2b/2c source data, compound 11.1111 μM, listed as Oldaterol): 0.3412 and 0.3104 and 0.1707 and 0.3679
FFN206 uptake relative to no compound (=1), replicate samples (rat VMAT2; Fig. 2b/2c source data, compound 100.0000 μM, listed as Oldaterol): 0.0752 and 0.06166 and -0.04341 and -0.00625
FFN206 uptake relative to no compound (=1), replicate samples (rat VMAT2; Fig. 2c source data, compound 0.0017 μM, listed as Oldaterol): 1.069 and 1.105 and 1.094 and 1.258
activity (VMAT2 [1]; hek293 cells): 95.6 ± 18.6%
effect on [3H]-DTBZ binding compared with DMSO control (one-way ANOVA, p < 0.001) (VMAT2 [2]): no statistically significant effect
ΔTm (rat VMAT2-His; [3]): 1.09 ± 0.08 oC

SMILES: CC(C)n1c(/C=C/C(O)CC(O)CC(=O)O)c(-c2ccc(F)cc2)c2ccccc21 (stereo not shown) [Fluvastatin, Fluvastatin sodium salt]
VMAT2-specific FFN206 uptake relative to DMSO (=1), replicate samples (rat VMAT2): 0.09585 and -0.01946 and 0.03446
activity (VMAT2 [1]; hek293 cells): 80.2 ± 34.8%
effect on [3H]-DTBZ binding compared with DMSO control (one-way ANOVA, p < 0.001) (VMAT2 [2]): no statistically significant effect
ΔTm (rat VMAT2-His; [3]): 4.98 ± 0.17 oC
ΔTm at 12 µM (rat VMAT2-His; [4]): 0.62 °C
ΔTm at 37 µM (rat VMAT2-His; [4]): 0.66 °C
ΔTm at 10 µM (rat VMAT2-His; [4]): 0.87 °C
ΔTm at 30 µM (rat VMAT2-His; [4]): 1.05 °C
ΔTm at 90 µM (rat VMAT2-His; [4]): 1.39 °C
ΔTm at 270 µM (rat VMAT2-His; [4]): 2.74 °C
ΔTm at 11 µM (rat VMAT2-His; [5]): 0.71 °C
ΔTm at 33 µM (rat VMAT2-His; [6]): 0.66 °C

SMILES: CC(C)NCC(O)c1ccc2ccccc2c1 (stereo not shown) [Pronethalol, Pronethalol hydrochloride]
IC50 (rat VMAT2): 1.01 ± 0.3 µM
ΔTm (rat VMAT2-His; 10 µM): 0,71 oC
ΔTm (rat VMAT2-His; 11 µM): 0,70 oC
ΔTm (rat VMAT2-His; 12 µM): -0,02 oC
ΔTm (rat VMAT2-His; 30 µM): 1,83 oC
ΔTm (rat VMAT2-His; 33 µM): 0,48 oC
ΔTm (rat VMAT2-His; 37 µM): 0,21 oC
ΔTm (rat VMAT2-His; 90 µM): 2,42 oC
ΔTm (rat VMAT2-His; 270 µM): 3,75 oC

SMILES: OC(CCN1CCCCC1)(c1ccccc1)C1CC2C=CC1C2 (stereo not shown) [Biperiden, Biperiden hydrochloride]
VMAT2-specific FFN206 uptake relative to DMSO (=1), replicate samples (rat VMAT2): 0.4909 and 0.5029 and 0.6058 and 0.5946
inhibition at 25 µM (rat VMAT2; HEK293, read-out: inhibitory effect on VMAT2 activity): ≤ 50%
activity (VMAT2 [1]): 79.9 ± 19.1%
effect on [3H]-DTBZ binding compared with DMSO control (one-way ANOVA, p < 0.001) (VMAT2 [2]): no statistically significant effect
ΔTm (rat VMAT2-His; [3]): 1.32 ± 0.22 oC
ΔTm at 12 µM (rat VMAT2-His; [4]): 0.2 °C
ΔTm at 37 µM (rat VMAT2-His; [4]): 0.33 °C
ΔTm at 10 µM (rat VMAT2-His; [4]): 1.11 °C
ΔTm at 30 µM (rat VMAT2-His; [4]): 1.6 °C
ΔTm at 90 µM (rat VMAT2-His; [4]): 0.9 °C
ΔTm at 270 µM (rat VMAT2-His; [4]): 2.12 °C
ΔTm (rat VMAT2-His; [5]): 0.45 °C
ΔTm (rat VMAT2-His; [6]): 0.56 °C

Continued, values first:

IC50 (rat VMAT2): 3.17 ± 0.895 µM
ΔTm (rat VMAT2-His; [3]): 1.49 ± 0.05 oC
SMILES: CC(C)NCC(O)COc1ccc(COCCOC(C)C)cc1 (stereo not shown) [Bisoprolol]

activity (VMAT2 [1]): 60.7 ± 20.8%
effect on [3H]-DTBZ binding compared with DMSO control (one-way ANOVA, p < 0.001) (VMAT2 [2]): statistically significantly effect
ΔTm (rat VMAT2-His; [3]): 4.53 ± 0.18 oC
ΔTm at 37 µM (rat VMAT2-His; [4]): 0.99 °C
ΔTm at 10 µM (rat VMAT2-His; [4]): 1.65 °C
ΔTm at 30 µM (rat VMAT2-His; [4]): 2.63 °C
ΔTm at 90 µM (rat VMAT2-His; [4]): 3.49 °C
ΔTm at 270 µM (rat VMAT2-His; [4]): 4.45 °C
ΔTm (rat VMAT2-His; [5]): 1.22 °C
ΔTm (rat VMAT2-His; [6]): 1.22 °C
SMILES: CCCNCC(O)COc1ccccc1C(=O)CCc1ccccc1 (stereo not shown) [Propafenone, Propafenone hydrochloride]

IC50 (rat VMAT2): 6.55 ± 3.49 µM
SMILES: C=CCOc1ccccc1OCC(O)CNC(C)C (stereo not shown) [Oxprenolol, Oxprenolol hydrochloride]

IC50 (rat VMAT2): 0.047 ± 0.014 µM
FFN206 uptake relative to no compound (=1), replicate samples (rat VMAT2; Fig. 2b/2c source data, compound 0.0152 μM): 0.9388 and 0.9839 and 0.9625 and 0.9806
FFN206 uptake relative to no compound (=1), replicate samples (rat VMAT2; Fig. 2b/2c source data, compound 0.1372 μM): 0.349 and 0.2794 and 0.2127 and 0.5464
FFN206 uptake relative to no compound (=1), replicate samples (rat VMAT2; Fig. 2b/2c source data, compound 0.4115 μM): 0.2586 and 0.1616 and 0.1258 and 0.3046
FFN206 uptake relative to no compound (=1), replicate samples (rat VMAT2; Fig. 2b/2c source data, compound 1.2346 μM): 0.2328 and 0.1144 and 0.1141 and 0.2682
FFN206 uptake relative to no compound (=1), replicate samples (rat VMAT2; Fig. 2b/2c source data, compound 3.7037 μM): 0.255 and 0.1011 and 0.07806 and 0.2392
FFN206 uptake relative to no compound (=1), replicate samples (rat VMAT2; Fig. 2b/2c source data, compound 11.1111 μM): 0.2251 and 0.08176 and 0.1003 and 0.2777
FFN206 uptake relative to no compound (=1), replicate samples (rat VMAT2; Fig. 2c source data, compound 0.0017 μM): 1.315 and 1.032 and 1.041 and 1.083
SMILES: OCc1cc([C@@H](O)CNCCCCCCOCCOCc2c(Cl)cccc2Cl)ccc1O [Vilanterol]
